Experimental data reported in ChEMBL document CHEMBL1124125, “6-(Alkylamino)-3-aryl-1,2,4-triazolo[3,4-a]phthalazines. A new class of benzodiazepine receptor ligands” (J Med Chem, 1988).

Key:
[1] = biological target: GABA-A receptor; anion channel; test: Inhibition of [3H]diazepam binding to GABA-A central benzodiazepine receptor of rat brain homogenate
Mus musculus [2] = test: Dose that prevented tonic extensor seizures and death in 50% of the mice.(ip); assay type: functional
[3] = Lethal dose when given intraperitoneally in mice; assay type: toxicity, organism-based; conditions: mouse, in vivo, ip
[4] = biological target: T1, GABA-A receptor; anion channel (Rattus norvegicus) (UniProt O09028+P15431+P18506+P18508+P19969+P20236+P23574+P23576+P28471+P28473+P30191+P62813+P63079+P63138+Q91ZM7+Q9ES14); test: Relative inhibition of [3H]diazepam binding to GABA-A receptor of rat forebrain in the presence and absence of GABA(10e-4M)
Mus musculus [5] = test: Inhibition of Anti-pentylenetetrazole-induced convulsions in mice following i.p. administration.; assay type: functional; conditions: ip
[6] = biological target: T1, GABA-A receptor; anion channel (Rattus norvegicus); test: GABA ratio (IC50/IC50 in the presence of 10e-4 GABA).; assay type: protein-complex assay
Rattus norvegicus = test: Minimal effective dose (MED, ip) that significantly increased the number of shocks (anticonflict); assay type: functional; conditions: read-out: MED
Mus musculus [7] = test: Antagonism of Diazepam muscle relaxant effect by compound (10 mg/kg, ip) was measured as the ratio of fallen/treated mice.; assay type: functional
Mus musculus [8] = test: Antagonism of Diazepam muscle relaxant effect by compound (30 mg/kg, ip) was measured as the ratio of fallen/treated mice.; assay type: functional

Compound: CNc1nn2c(-c3ccccc3)nnc2c2ccccc12
- Ki [1]: 0.0463 µM
- ED50 (Mus musculus [2]): > 60 mg/kg
- LD50 [3]: 300 mg/kg
- Ratio [4]: 1

Compound: CCCCNc1nn2c(-c3ccccc3)nnc2c2ccccc12
- Ki [1]: 0.243 µM
- ED50 (Mus musculus [5]): ≥ 100 mg/kg
- LD50 [3]: 600 mg/kg

Compound: NC(=O)c1ccc(-c2nnc3c4ccccc4c(N4CCCC4)nn23)cc1
- Ki [1]: 0.113 µM
- ED50 (Mus musculus [5]): ≥ 50 mg/kg
- LD50 [3]: 200 mg/kg
- Ratio [6]: 1.1

Compound: COc1cc(OC)c(-c2nnc3c4ccccc4c(N4CCCC4)nn23)cc1OC
- Ki [1]: 1.93 µM
- ED50 (Mus musculus [2]): > 50 mg/kg
- LD50 [3]: 300 mg/kg

Compound: CCN(C)c1nn2c(-c3ccccc3)nnc2c2ccccc12
- Ki [1]: 0.0144 µM
- ED50 (Mus musculus [5]): ≥ 50 mg/kg
- LD50 [3]: 300 mg/kg
- Ratio [6]: 1.1

Compound: CC(=O)Nc1ccc(-c2nnc3c4ccccc4c(N4CCCC4)nn23)cc1
- Ki [1]: 0.036 µM
- ED50 (Mus musculus [5]): ≥ 100 mg/kg
- LD50 [3]: 600 mg/kg
- Ratio [6]: 1.1

Compound: FC(F)(F)c1cccc(-c2nnc3c4ccccc4c(N4CCCC4)nn23)c1
- Ki [1]: > 3 µM
- ED50 (Mus musculus [5]): ≥ 100 mg/kg
- LD50 [3]: 600 mg/kg

Compound: COc1ccc(-c2nnc3c4ccccc4c(N4CCCC4)nn23)cc1OC
- Ki [1]: > 3 µM
- ED50 (Mus musculus [2]): > 100 mg/kg
- LD50 [3]: 500 mg/kg

Compound: COCCN(CCOC)c1nn2c(-c3ccc(Cl)cc3)nnc2c2ccccc12
- Ki [1]: 0.017 µM
- ED50 (Mus musculus [2]): 60.1 mg/kg
- LD50 [3]: 600 mg/kg
- Ratio [6]: 1.3

Compound: N#Cc1ccc(-c2nnc3c4ccccc4c(N4CCCC4)nn23)cc1
- Ki [1]: 0.102 µM
- ED50 (Mus musculus [5]): ≥ 100 mg/kg
- LD50 [3]: 600 mg/kg
- Ratio [6]: 1.1

Compound: Cc1ccc(-c2nnc3c4ccccc4c(N4CCCC4)nn23)cc1C
- Ki [1]: 1.97 µM
- ED50 (Mus musculus [2]): > 50 mg/kg
- LD50 [3]: 300 mg/kg

Compound: c1ccc(-c2ccc(-c3nnc4c5ccccc5c(N5CCCC5)nn34)cc2)cc1
- Ki [1]: > 3 µM
- ED50 (Mus musculus [2]): > 75 mg/kg
- LD50 [3]: 400 mg/kg

Compound: CC(C)Nc1nn2c(-c3ccccc3)nnc2c2ccccc12
- Ki [1]: 0.306 µM
- ED50 (Mus musculus [2]): > 75 mg/kg
- LD50 [3]: 400 mg/kg

Compound: COCCN(CCOC)c1nn2c(-c3ccc(OC)c(C)c3)nnc2c2ccccc12
- Ki [1]: 1.82 µM
- ED50 (Mus musculus [2]): > 100 mg/kg
- LD50 [3]: 400 mg/kg

Compound: CN(C)c1ccc(-c2nnc3c4ccccc4c(N4CCCC4)nn23)cc1
- Ki [1]: 1.72 µM
- ED50 (Mus musculus [5]): ≥ 75 mg/kg
- LD50 [3]: 300 mg/kg

Compound: c1ccc(-c2nnc3c4ccccc4c(N4CCOCC4)nn23)cc1
- Ki [1]: 0.014 µM
- ED50 (Mus musculus [5]): ≥ 100 mg/kg
- LD50 [3]: 300 mg/kg
- Ratio [6]: 0.95

Compound: COc1ccc(-c2nnc3c4ccccc4c(N(C)CC(C)O)nn23)cc1 (stereo unspecified)
- Ki [1]: 0.017 µM
- ED50 (Mus musculus [2]): 9.8 mg/kg
- LD50 [3]: 300 mg/kg
- minimal effective dose (Rattus norvegicus): 10 mg/kg
- Ratio [6]: 1.4

Compound: COc1cc(-c2nnc3c4ccccc4c(N4CCCC4)nn23)cc(Br)c1OC
- Ki [1]: > 3 µM
- ED50 (Mus musculus [2]): > 100 mg/kg
- LD50 [3]: 600 mg/kg

Compound: COCCN(CCOC)c1nn2c(-c3ccc(N(C)C)cc3)nnc2c2ccccc12
- Ki [1]: 2.65 µM
- ED50 (Mus musculus [5]): 20 mg/kg
- LD50 [3]: 200 mg/kg

Compound: COCCNc1nn2c(-c3ccc(OC)cc3)nnc2c2ccccc12
- Ki [1]: 0.0054 µM
- ED50 (Mus musculus [5]): ≥ 50 mg/kg
- LD50 [3]: 200 mg/kg
- Ratio [6]: 1.1

Compound: CCOc1c(Br)cc(Br)cc1-c1nnc2c3ccccc3c(N3CCCC3)nn12
- Ki [1]: > 3 µM
- ED50 (Mus musculus [2]): > 100 mg/kg
- LD50 [3]: 600 mg/kg

Compound: COCCN(CCOC)c1nn2c(-c3ccc(F)cc3)nnc2c2ccccc12
- Ki [1]: 0.02 µM
- ED50 (Mus musculus [5]): 60.1 mg/kg
- LD50 [3]: 600 mg/kg
- Ratio [6]: 1.5

Compound: Nc1nn2c(-c3ccccc3)nnc2c2ccccc12
- Ki [1]: 0.243 µM
- ED50 (Mus musculus [5]): ≥ 100 mg/kg
- LD50 [3]: 600 mg/kg

Compound: CCOc1cc(OCC)c(-c2nnc3c4ccccc4c(N4CCCC4)nn23)cc1OCC
- Ki [1]: > 3 µM
- ED50 (Mus musculus [2]): > 50 mg/kg
- LD50 [3]: 300 mg/kg

Compound: CCCCCOc1ccc(-c2nnc3c4ccccc4c(N4CCCC4)nn23)cc1OC
- Ki [1]: > 3 µM
- ED50 (Mus musculus [2]): > 50 mg/kg
- LD50 [3]: 200 mg/kg

Compound: c1ccc(CNc2nn3c(-c4ccccc4)nnc3c3ccccc23)cc1
- Ki [1]: 0.243 µM
- ED50 (Mus musculus [2]): > 75 mg/kg
- LD50 [3]: 400 mg/kg

Compound: COCCN(CCOC)c1nn2c(-c3ccc(OC(C)C)cc3)nnc2c2ccccc12
- Ki [1]: 0.142 µM
- ED50 (Mus musculus [2]): 20.7 mg/kg
- LD50 [3]: 600 mg/kg
- minimal effective dose (Rattus norvegicus): 10 mg/kg
- Ratio [6]: 1.8

Compound: COCCN(CCOC)c1nn2c(-c3cccc(C)c3)nnc2c2ccccc12
- Ki [1]: 0.181 µM
- ED50 (Mus musculus [2]): > 100 mg/kg
- LD50 [3]: 300 mg/kg

Compound: CN(C)c1ccc(-c2nnc3c4ccccc4c(N4CCCC4)nn23)c(Cl)c1
- Ki [1]: 0.393 µM
- ED50 (Mus musculus [2]): > 100 mg/kg
- LD50 [3]: 600 mg/kg

Compound: Oc1ccc(-c2nnc3c4ccccc4c(N4CCCC4)nn23)cc1
- Ki [1]: 0.011 µM
- ED50 (Mus musculus [2]): > 100 mg/kg
- LD50 [3]: 600 mg/kg
- Ratio [6]: 1.1

Compound: O=C(O)c1ccc(-c2nnc3c4ccccc4c(N4CCCC4)nn23)cc1
- Ki [1]: > 3 µM
- ED50 (Mus musculus [2]): > 75 mg/kg
- LD50 [3]: 400 mg/kg

Compound: COCCN(CCOC)c1nn2c(-c3cccc(Cl)c3)nnc2c2ccccc12
- Ki [1]: 0.307 µM
- ED50 (Mus musculus [5]): ≥ 100 mg/kg
- LD50 [3]: 600 mg/kg

Compound: COCCN(CCOC)c1nn2c(-c3ccccc3)nnc2c2ccccc12
- Ki [1]: 0.066 µM
- ED50 (Mus musculus [2]): 34.2 mg/kg
- LD50 [3]: 200 mg/kg
- minimal effective dose (Rattus norvegicus): 15 mg/kg
- Ratio [4]: 1.6

Compound: CN(C)c1nn2c(-c3ccccc3)nnc2c2ccccc12
- Ki [1]: 0.0208 µM
- ED50 (Mus musculus [2]): > 75 mg/kg
- LD50 [3]: 400 mg/kg
- Fallen/treated (Mus musculus [7]): 5
- Fallen/treated (Mus musculus [8]): 2
- Ratio [4]: 1.1

Compound: CN1CCN(c2nn3c(-c4ccccc4)nnc3c3ccccc23)CC1
- Ki [1]: 0.0377 µM
- ED50 (Mus musculus [2]): > 50 mg/kg
- LD50 [3]: 300 mg/kg
- Ratio [6]: 0.9

Compound: COCCN(CCOC)c1nn2c(-c3ccc(O)cc3)nnc2c2ccccc12
- Ki [1]: 0.0041 µM
- ED50 (Mus musculus [2]): > 50 mg/kg
- LD50 [3]: 600 mg/kg
- Ratio [6]: 1

Compound: c1ccc(-c2nnc3c4ccccc4c(N4CCCC4)nn23)cc1
- Ki [1]: 0.0156 µM
- ED50 (Mus musculus [2]): > 75 mg/kg
- LD50 [3]: 400 mg/kg
- Fallen/treated (Mus musculus [7]): 4
- Fallen/treated (Mus musculus [8]): 2
- Ratio [6]: 1.1

Compound: O=[N+]([O-])c1cc(-c2nnc3c4ccccc4c(N4CCCC4)nn23)ccc1Cl
- Ki [1]: 0.908 µM
- ED50 (Mus musculus [2]): > 50 mg/kg
- LD50 [3]: 200 mg/kg

Compound: CCN(CC)c1nn2c(-c3ccccc3)nnc2c2ccccc12
- Ki [1]: 0.041 µM
- ED50 (Mus musculus [2]): > 100 mg/kg
- LD50 [3]: 600 mg/kg
- Ratio [4]: 0.9

Compound: CC(C)(C)Nc1nn2c(-c3ccccc3)nnc2c2ccccc12
- Ki [1]: 0.565 µM
- ED50 (Mus musculus [5]): ≥ 50 mg/kg
- LD50 [3]: 300 mg/kg

Compound: c1ccc(-c2nnc3c4ccccc4c(N4CCCCC4)nn23)cc1
- Ki [1]: 0.016 µM
- ED50 (Mus musculus [5]): ≥ 100 mg/kg
- LD50 [3]: 600 mg/kg
- Ratio [6]: 1

Compound: COCCN(CCOC)c1nn2c(-c3ccc(C)cc3)nnc2c2ccccc12
- Ki [1]: 0.044 µM
- ED50 (Mus musculus [5]): 20.4 mg/kg
- LD50 [3]: 400 mg/kg
- minimal effective dose (Rattus norvegicus): 10 mg/kg
- Ratio [6]: 1.9

Compound: Brc1ccccc1-c1nnc2c3ccccc3c(N3CCCC3)nn12
- Ki [1]: 0.76 µM
- ED50 (Mus musculus [2]): > 100 mg/kg
- LD50 [3]: 600 mg/kg

Compound: CCNc1nn2c(-c3ccccc3)nnc2c2ccccc12
- Ki [1]: 0.0376 µM
- ED50 (Mus musculus [2]): > 50 mg/kg
- LD50 [3]: 200 mg/kg
- Ratio [4]: 0.9
